From article PMC9823331, “Permeability of New Antifungal Fluconazole Derivatives through a Lipophilic Membrane: Experiment and Modeling” (Molecules, 2023)

Columns and labels:
[1] = test system: C. parapsilosis ATCC 22019; set-up: method as in earlier work; details: cited from earlier work
[2] = Distribution in the 1-octanol/buffer pH 7.4 system; assay type: physicochemical; details: calculated by Henderson–Hasselbalch equation
[3] = Membrane permeability assay through the PermeaPad barrier (Franz diffusion cell); assay type: in vitro ADME; details: buffer pH 7.4, 37 °C, values are Papp multiplied by 10^5, read-out: Papp⋅10^5, apparent permeability coefficient
Text: A vertical-type Franz diffusion cell (PermeGear, Inc., Hellertown, PA, USA) was used to measure the permeability of the studied compounds. The biomimetic lipophilic PermeaPad barrier (PHABIOC, Germany, www.permeapad.com, accessed on 20 May 2021) fully described by di Cagno et al. was employed in the present study to simulate the morphology and properties of the biologic membranes. This membrane was chosen because of its advantageous properties and user friendliness. PermeaPad belongs to cell-free permeation systems. It is composed of two cellulose membranes with a thin layer of phosphatidylcholine (S-100) between them. […]
Firstly, the donor chamber was filled with the donor solution of the tested compound in buffer pH 7.4, then the PermeaPad barrier was mounted between the donor and receptor parts of the diffusion cell (0.785 cm^2 effective surface area) carefully avoiding the air bubbles (which can minimize the active area of the membrane, thus, slowing the permeation). […] The sample solution concentrations were measured spectrophotometrically (Spectramax 190; Molecular Devices, Molecular Devices Corporation, San Jose, CA, USA) in 96-well UV black plates (Costar) at λ = 270 nm. […]
The apparent permeability coefficient (Papp) was calculated by normalizing the slope (J) by the compound concentration in the donor solution (C0) by the equation:(9) Papp=J/C0 […]

[4] = set-up: method as in PMID 33713781; details: cited from earlier work

| Structure (SMILES) | logK0, distribution coefficient for the uncharged particles [2] | Papp at 5 h [3] [×10⁻⁶ cm/s] | log(1/MIC) [1] | logKoct/buf, apparent distribution coefficient in the 1-octanol/buffer pH 7.4 system [4] |
| --- | --- | --- | --- | --- |
| Cc1ccc(-n2c(=S)sc3c(=O)n(CCN4CCN(CC(O)(Cn5cncn5)c5ccc(F)cc5F)CC4)cnc32)cc1 (centres unmarked) [XII, N-[2-[4-[2-(2,4-difluorophenyl)-2-hydroxy-3-(1,2,4-triazol-1-yl)propyl]piperazin-1-yl]ethyl]-2-methyl-3-(p-tolyl)-2-thioxo-thiazolo[4,5-d]pyrimidin-7-one] | -3.95 | 18.8 ± 0.42 | 0.30 | 2.90 |
| Cc1ccc(-n2c(=S)sc3c(=O)n(CC(=O)NCC(O)(Cn4cncn4)c4ccc(F)cc4F)cnc32)cc1 (centres unmarked) [IV, N-[2-(2,4-difluorophenyl)-2-hydroxy-3-(1,2,4-triazol-1-yl)propyl]-2-[7-oxo-3-(p-tolyl)-2-thioxo-thiazolo[4,5-d]pyrimidin-6-yl]acetamide] | -4.68 |  | -1.51 | 1.27 |
| O=C(Cn1cnc2c(sc(=S)n2-c2ccc(F)cc2)c1=O)NCC(O)(Cn1cncn1)c1ccc(F)cc1F (centres unmarked) [VI, N-[2-(2,4-difluorophenyl)-2-hydroxy-3-(1,2,4-triazol-1-yl)propyl]-2-[3-(4-fluorophenyl)-7-oxo-2-thioxo-thiazolo[4,5-d]pyrimidin-6-yl]acetamide] | -4.72 |  | -1.51 |  |
| O=C(Cn1cnc2c(sc(=S)n2-c2ccc(Cl)cc2)c1=O)NCC(O)(Cn1cncn1)c1ccc(F)cc1F (centres unmarked) [V, N-[2-(2,4-difluorophenyl)-2-hydroxy-3-(1,2,4-triazol-1-yl)propyl]-2-[3-(4-chlorophenyl)-7-oxo-2-thioxo-thiazolo[4,5-d]pyrimidin-6-yl]-acetamide] | -4.69 |  | -1.51 |  |
| Cc1ccc(-n2c(=S)sc3c(=O)n(CC(O)(Cn4cncn4)c4ccc(F)cc4F)cnc32)cc1 (centres unmarked) [I, N-[2-(2,4-difluorophenyl)-2-hydroxy-3-(1,2,4-triazol-1-yl)propyl]-3-(p-tolyl)-2-thioxo-thiazolo[4,5-d]pyrimidin-7-one] |  |  | -1.51 | 0.79 |

Further lines, with some results ahead:

| logK0, distribution coefficient for the uncharged particles [2] | Papp at 5 h [3] [×10⁻⁶ cm/s] | Structure (SMILES) | log(1/MIC) [1] | logKoct/buf, apparent distribution coefficient in the 1-octanol/buffer pH 7.4 system [4] |
| --- | --- | --- | --- | --- |
| -4.66 |  | COc1ccccc1-n1c(=S)sc2c(=O)n(CC(O)(Cn3cncn3)c3ccc(F)cc3F)cnc21 (centres unmarked) [II, N-[2-(2,4-difluorophenyl)-2-hydroxy-3-(1,2,4-triazol-1-yl)propyl]-3-(2-methoxyphenyl)-2-thioxo-thiazolo[4,5-d]pyrimidin-7-one] | -0.90 |  |
| -4.73 |  | COc1ccccc1-n1c(=S)sc2c(=O)n(CC(=O)NCC(O)(Cn3cncn3)c3ccc(F)cc3F)cnc21 (centres unmarked) [VII, N-[2-(2,4-difluorophenyl)-2-hydroxy-3-(1,2,4-triazol-1-yl)propyl]-2-[3-(2-methoxyphenyl)-7-oxo-2-thioxo-thiazolo[4,5-d]pyrimidin-6-yl]acetamide] | -1.51 | 0.80 |
| -4.76 |  | O=c1c2sc(=S)n(-c3ccc(F)cc3)c2ncn1CC(O)(Cn1cncn1)c1ccc(F)cc1F (centres unmarked) [III, N-[2-(2,4-difluorophenyl)-2-hydroxy-3-(1,2,4-triazol-1-yl)propyl]-3-(4-fluorophenyl)-2-thioxo-thiazolo[4,5-d]pyrimidin-7-one] | -1.51 |  |
